The record followed here is US20200038399A1, “FORMULATIONS, METHODS, KIT, AND DOSAGE FORMS FOR TREATING BACTERIAL INFECTION” (Motif BioSciences Inc., priority 2016, published 2020).

Like-named read-outs stand apart in the source and are kept apart here.

In test [1] the test system is Staphylococcus aureus ATCC 25923. The experiment in a line: checkerboard synergy assay with iclaprim. Type of test: cell-based. The conditions noted are these: antibiotic in combination with iclaprim; S. aureus 25923.
The test system of test [2] is Streptococcus pneumoniae ATCC 49619. The experiment in a line: checkerboard synergy assay with iclaprim. Type of test: cell-based. The conditions noted are these: antibiotic in combination with iclaprim; S. pneumoniae 49619.
For test [3], the system named is Moraxella catarrhalis RA 21. The experiment in a line: checkerboard synergy assay with iclaprim. The settings on record: antibiotic in combination with iclaprim; M. catarrhalis RA 21. Format: cell-based.
The subject of test [4] is Haemophilus influenzae ATCC 49766. The experiment in a line: checkerboard synergy assay with iclaprim. The settings on record: antibiotic in combination with iclaprim; H. influenzae 49766. Format: cell-based.
Test [5] concerns Klebsiella pneumoniae ATCC 33495. The experiment in a line: checkerboard synergy assay with iclaprim. Type of test: cell-based. The settings on record: antibiotic in combination with iclaprim; K. pneumoniae 33495.
The subject of test [6] is S. aureus 101. The experiment in a line: checkerboard synergy assay with iclaprim. Type of test: cell-based, Staphylococcus aureus. The conditions noted are these: antibiotic in combination with iclaprim.
The subject of test [7] is S. pneumoniae 1/1. The experiment in a line: checkerboard synergy assay with iclaprim. Format: cell-based, Streptococcus pneumoniae. The conditions noted are these: antibiotic in combination with iclaprim.
The test system of test [8] is Staphylococcus aureus, Streptococcus pneumoniae, Haemophilus influenzae, Moraxella catarrhalis and Klebsiella pneumoniae. The experiment in a line: checkerboard synergy assay with iclaprim, strains pooled. Format: cell-based. The settings on record: for synergistic potential with iclaprim: checkerboard experiments, all strains. The procedure:
The synergistic potential of iclaprim against Gram-positive and Gram-negative bacteria was determined using the checkerboard assay as described in Eliopoulos GM and Moellering, Jr. RC (1991), Antimicrobial combinations, pp. 432-492, in V. Lorian (ed.), Antibiotics in laboratory medicine, 3rd Ed., The Williams & Wilkins Co., Baltimore, the entire disclosure of which is herein incorporated by reference, allowing multiple test concentrations of iclaprim to be assayed in the presence of various concentrations of the other antibiotic in microtiter plates. The same growth media and conditions were used as described in 3.2 below.
Two different dilutions were used for iclaprim depending on the MIC determined for the bacterium. […] Iclaprim and the other antibiotic being tested were also dispensed alone in the last row and in the last column, respectively, as controls.
The Fractional Inhibitory Concentrations (FIC) for each added agent were calculated and used to determine the sum of FIC (ΣFIC) indicative of the synergistic potential of a given combination as described in Veyssier P. (1999), Inhibiteurs de la dihydrofolate reductase, nitrohétérocycles (furanes) et 8-hydroxyquinoleines, pp. 995-1027, in A. Bryskier (ed.), Antibiotiques agents antibatériens et antifongiques, 1st Ed., Ellipses Edition Marketing SA, Paris, the entire disclosure of which is herein incorporated by reference. Synergy was defined whereby the ΣFIC was <0.5, indifference (no synergy nor antagonism) whereby ΣFIC was ≥0.5 but ≤4, and antagonism whereby ΣFIC was >4. Additivity as a special form of indifference was defined whereby the ΣFIC was ≥0.5 but <1, for example as described in Stevens, D L et al. (1998), In vitro antimicrobial effects of various combinations of penicillin and clindamycin against four strains of Streptococcus pyogenes, J. Antimicrob. Chemother. 42: 1266-1268, the entire disclosure of which is herein incorporated by reference.

The subject of test [9] is S. aureus 101. The experiment in a line: MIC determination. Format: cell-based, Staphylococcus aureus. In a few lines:
(§1)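 Visible-growth endpoint after 18 h, 37 °C. Cation-adjusted Mueller-Hinton broth was used for K. pneumoniae and S. aureus in ambient air; H. influenzae (HTM) and M. catarrhalis (Brain Heart Infusion) were incubated under 5% CO2.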

Test [10] concerns Staphylococcus aureus ATCC 25923. The experiment in a line: MIC determination. The settings on record: for MIC: Staphylococcus aureus, read-out: Minimum inhibitory concentrations (MIC). Format: cell-based. An outline of the steps: as §1
In test [11] the test system is Streptococcus pneumoniae ATCC 49619. The experiment in a line: MIC determination. The conditions noted are these: for MIC: Streptococcus pneumoniae, read-out: Minimum inhibitory concentrations (MIC). Type of test: cell-based.
Test [12] relates to Moraxella catarrhalis RA 21. The experiment in a line: MIC determination. Format: cell-based. The conditions noted are these: for MIC: Moraxella catarrhalis, read-out: Minimum inhibitory concentrations (MIC). An outline of the steps:
as §1

The test system of test [13] is Haemophilus influenzae ATCC 49766. The experiment in a line: MIC determination. The settings on record: for MIC: Haemophilus influenzae, read-out: Minimum inhibitory concentrations (MIC). Type of test: cell-based. In a few lines:
as §1

In test [14] the test system is Klebsiella pneumoniae ATCC 33495. The experiment in a line: MIC determination. Format: cell-based. The settings on record: for MIC: Klebsiella pneumoniae, read-out: Minimum inhibitory concentrations (MIC). In a few lines: as §1
Test [15] relates to S. pneumoniae 1/1. The experiment in a line: MIC determination. The settings on record: for MIC: Streptococcus pneumoniae, read-out: Minimum inhibitory concentrations (MIC). Format: cell-based, Streptococcus pneumoniae.
The mark [16] stands for this setting: Staphylococcus aureus, 101, 18 h; read-out: Minimum inhibitory concentrations (MIC).
Where [17] appears, read: ATCC25923, S. aureus 25923, 18 hours at 37° C.
The mark [18] stands for this setting: ATCC49619, S. pneumoniae 49619, 18 hours at 37° C., 5% CO2.
[19] abbreviates: RA21, M. catarrhalis RA 21, 18 hours at 37° C., 5% CO2.
Setting [20] is: ATCC33495, K. pneumonia 33495, 18 hours at 37° C.
[21] abbreviates: S. pneumoniae 1/1, 18 hours at 37° C., 5% CO2.

Consider `Nc1ccc(S(=O)(=O)Nc2ncccn2)cc1` [Sulfadiazine], for which the “Σ FIC” value in test [1] is given as 0.06-0.53; in test [2], 0.13-0.53; in test [3], 0.09-0.50; in test [4], 0.16-0.53; in test [5] it was 0.27-1.50; in [6], 0.75-1.13. In test [7], the “Σ FIC” value is 0.28-0.56. The “Con (Conclusion)” value in [3], in test [4] and in [5] was “Syn (Synergy (Syn))” in each case. In test [8], the “synergistic potential with iclaprim” value is “highly synergistic”. Further, the “ΣFIC, range over strains” value in test [8] (in combination with iclaprim, all the strains tested) is on record as 0.06-1.50. The MIC in test [9] (setting [16]) is greater than 128 µg/mL; in [10] (setting [17]), greater than 128 µg/mL; in test [11] (setting [18]), greater than 128 µg/mL; in [12] (setting [19]), greater than 128 µg/mL; in test [13] (ATCC49766, 18 h) it was greater than 128 µg/mL; in test [14] (setting [20]), greater than 128 µg/mL. The MIC in test [15] (setting [21]) was greater than 128 µg/mL.
On to `Cc1cc(NS(=O)(=O)c2ccc(N)cc2)no1` [Sulfamethoxazole, N1-(5-methyl-3-isoxazolyl)sulfanilamide], for which the entries for the “Con (Conclusion)” value in test [3], in test [4] and in test [5] were “Syn (Synergy (Syn))”, “Syn (Synergy (Syn))” and “Ad (Additivity (Ad))”, respectively. Also, the “synergistic potential with iclaprim” value in [8] is given as “highly synergistic”. Also, the MIC was greater than 128 µg/mL in test [9] (setting [16]); greater than 128 µg/mL in test [10] (setting [17]); greater than 128 µg/mL in test [11] (setting [18]); greater than 128 µg/mL in [12] (setting [19]); 128 µg/mL in test [13] (ATCC49766, 18 h); greater than 128 µg/mL in test [14] (setting [20]). In addition, the MIC in test [15] (setting [21]) is greater than 128 µg/mL.
Turning to `NC[C@H]1O[C@H](O[C@H]2[C@H](O)[C@@H](O[C@H]3O[C@H](CO)[C@@H](O)[C@H](N)[C@H]3O)[C@H](N)C[C@@H]2N)[C@H](N)C[C@@H]1O` [Tobramycin], the “Σ FIC” value was 0.99-1.25 in [1]; 1.00-1.25 in [2]; 0.63-1.25 in test [3]; 1.02-1.50 in [4]; 0.52-1.13 in [5]; 1.01-1.50 in test [6]. In test [7], the “Σ FIC” value is on record as 0.63-1.13. Further, the figures for the “Con (Conclusion)” value in test [3], in [4] and in test [5] were “Ad (Additivity (Ad))”, “Ind (Indifference (Ind))” and “Ad (Additivity (Ad))”, respectively. The MIC in test [9] (setting [16]) is greater than 128 µg/mL; in test [10] (setting [17]) it was 0.5 µg/mL; in [11] (setting [18]), 32 µg/mL; in [12] (setting [19]), 4 µg/mL; in [13] (ATCC49766, H. Influenza 49766, 18 hours at 37° C., 5% CO2) it was 0.5 µg/mL; in test [14] (setting [20]) it was 1 µg/mL. In addition, the MIC in test [15] (setting [21]) was determined as 32 µg/mL.
Regarding `CN[C@H](CC(C)C)C(=O)N[C@H]1C(=O)N[C@@H](CC(N)=O)C(=O)N[C@H]2C(=O)N[C@H]3C(=O)N[C@H](C(=O)N[C@H](C(=O)O)c4cc(O)cc(O)c4-c4cc3ccc4O)[C@H](O)c3ccc(c(Cl)c3)Oc3cc2cc(c3O[C@@H]2O[C@H](CO)[C@@H](O)[C@H](O)[C@H]2O[C@H]2C[C@](C)(N)[C@H](O)[C@H](C)O2)Oc2ccc(cc2Cl)[C@H]1O` [Vancomycin], the “Σ FIC” value is 1.03-1.50 in [1]; 1.00-1.25 in test [2]; 0.75-1.13 in test [3]; 1.00-1.25 in [4]; 1.01-1.50 in test [5]; 0.75-1.25 in test [6]. The “Σ FIC” value in test [7] is 0.56-1.03. The “Con (Conclusion)” value in test [3] is “Ad (Additivity (Ad))”; in test [4], “Ind (Indifference (Ind))”; in [5], “Ind (Indifference (Ind))”. The MIC in test [9] (Staphylococcus aureus, 101, 18 h, read-out: Minimum inhibitory concentrations (MIC)) was 2 µg/mL; in test [10] (ATCC25923, 18 h), 2 µg/mL; in [11] (ATCC49619, 18 h), 0.5 µg/mL; in [12] (RA21, 18 h) it was greater than 128 µg/mL; in [13] (ATCC49766, 18 h), 128 µg/mL; in test [14] (ATCC33495, 18 h) it was greater than 128 µg/mL. The MIC in test [15] (1/1, 18 h) came to 0.5 µg/mL.
Turning to Gentamicin, the “Con (Conclusion)” value in [1] is given as “Ind (Indifference (Ind))”; in test [2] it was “Ad (Additivity (Ad))”; in test [3], “Ind (Indifference (Ind))”; in test [4] it was “Ind (Indifference (Ind))”; in test [5], “Ad (Additivity (Ad))”; in [6], “Ind (Indifference (Ind))”. Moreover, the “Con (Conclusion)” value in test [7] is on record as “Ind (Indifference (Ind))”. The “Σ FIC” value in test [1] was 2.05-2.48; in [2], 0.75-1.13; in test [3], 1.00-1.25; in [4], 1.02-1.13; in test [5], 0.63-1.25; in test [6] it was 1.01-1.50. In addition, the “Σ FIC” value in test [7] is listed as 1.06-1.50. The “Minimum inhibitory concentrations (MIC)” value in test [9] (S. aureus 101; 18 hours at 37° C.) was greater than 128 µg/mL; in [10] (S. aureus 25923, 18 hours at 37° C.), 0.5 µg/mL; in test [11] (S. pneumoniae 49619, 18 hours at 37° C., 5% CO2) it was 32 µg/mL; in test [12] (M. catarrhalis RA 21, 18 hours at 37° C., 5% CO2), 2 µg/mL; in [13] (H. Influenza 49766, 18 hours at 37° C., 5% CO2) it was 2 µg/mL; in test [14] (K. pneumonia 33495, 18 hours at 37° C.) it was 1 µg/mL. Moreover, the “Minimum inhibitory concentrations (MIC)” value in test [15] (setting [21]) was 32 µg/mL.
